# Experimental data as given in the supplement of paper PMC10307832.
# Key:
# Assay in all cases: relative viability (nuclei count vs DMSO), 5 days (fraction); higher = more cells survive
# AZ3146 + Dasatinib = compound: CN1CCC(CC1)OC2=CC(=C(C=C2)NC3=NC=C4C(=N3)N(C(=O)N4C)C5CCCC5)OC [AZ3146] + Cc1nc(Nc2ncc(C(=O)Nc3c(C)cccc3Cl)s2)cc(N2CCN(CCO)CC2)n1 [Dasatinib] (partner 0.075 µM)
# Method in brief: (§1)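 Lung cancer cell lines were pin-tool dosed in 1536-well plates on the day after seeding, with either a lone drug or a fixed anchor-drug dose plus five library-drug doses (not always all listed) in √10 steps. Nuclei were counted on 4× images after 5 days. Relative viability is the ratio of treated-well to vehicle-well nuclei counts, with each value a median of duplicate plates.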
# GSK-J4 + Olaparib = compound: CCOC(=O)CCNc1cc(N2CCc3ccccc3CC2)nc(-c2ccccn2)n1 [GSK-J4] + O=C(c1cc(Cc2n[nH]c(=O)c3ccccc23)ccc1F)N1CCN(C(=O)C2CC2)CC1 [Olaparib] (partner 8 µM)
# Method in brief: as §1
# GSK-J4 + Pictilisib = compound: CCOC(=O)CCNc1cc(N2CCc3ccccc3CC2)nc(-c2ccccn2)n1 [GSK-J4] + CS(=O)(=O)N1CCN(Cc2cc3nc(-c4cccc5[nH]ncc45)nc(N4CCOCC4)c3s2)CC1 [Pictilisib] (partner 1 µM)
# Method in brief: as §1
# GSK-J4 + Bortezomib = compound: CCOC(=O)CCNc1cc(N2CCc3ccccc3CC2)nc(-c2ccccn2)n1 [GSK-J4] + CC(C)C[C@H](NC(=O)[C@H](Cc1ccccc1)NC(=O)c1cnccn1)B(O)O [Bortezomib] (partner 0.002 µM)
# Method in brief: as §1
Cell Line,relative viability (AZ3146 + Dasatinib; first compound 0.08 µM),relative viability (AZ3146 + Dasatinib; first compound 0.253 µM),relative viability (AZ3146 + Dasatinib; first compound 0.8 µM),relative viability (AZ3146 + Dasatinib; first compound 2.53 µM),relative viability (AZ3146 + Dasatinib; first compound 8 µM),relative viability (GSK-J4 + Olaparib; first compound 0.5 µM),relative viability (GSK-J4 + Olaparib; first compound 1.581 µM),relative viability (GSK-J4 + Olaparib; first compound 5 µM),relative viability (GSK-J4 + Olaparib; first compound 15.81 µM),relative viability (GSK-J4 + Olaparib; first compound 50 µM),relative viability (GSK-J4 + Pictilisib; first compound 0.5 µM),relative viability (GSK-J4 + Pictilisib; first compound 1.581 µM),relative viability (GSK-J4 + Pictilisib; first compound 5 µM),relative viability (GSK-J4 + Pictilisib; first compound 15.81 µM),relative viability (GSK-J4 + Pictilisib; first compound 50 µM),relative viability (GSK-J4 + Bortezomib; first compound 0.5 µM),relative viability (GSK-J4 + Bortezomib; first compound 1.581 µM),relative viability (GSK-J4 + Bortezomib; first compound 5 µM),relative viability (GSK-J4 + Bortezomib; first compound 15.81 µM),relative viability (GSK-J4 + Bortezomib; first compound 50 µM)
NCI-H1650,0.318,0.315,0.37,0.265,0.225,0.852,0.739,0.871,0.639,0.509,0.644,0.258,0.622,0.533,0.291,0.17,0.164,0.219,0.174,0.232
NCI-H1651,0.335,0.387,0.422,0.35,0.251,0.178,0.158,0.184,0.182,0.18,0.578,0.416,0.668,0.639,0.389,0.893,0.842,0.893,0.901,0.884
NCI-H1666,0.799,0.818,0.74,0.764,0.596,0.684,0.676,0.786,0.746,0.699,0.325,–,0.419,0.603,0.364,0.776,–,0.84,0.66,0.495
NCI-H1734,0.436,0.461,0.493,0.484,0.394,0.652,0.549,0.551,0.582,0.333,0.464,0.508,0.401,0.426,0.341,0.795,0.878,0.738,0.725,0.783
NCI-H1755,0.492,0.425,0.424,0.441,0.408,0.853,0.754,0.841,0.859,0.687,0.453,0.38,0.378,0.387,0.331,0.937,0.813,0.649,0.886,0.905
NCI-H1792,0.737,0.855,–,0.808,0.822,0.45,0.286,0.309,0.429,0.341,0.306,0.25,0.254,0.244,0.263,0.963,0.724,0.915,0.909,1.02
NCI-H1915,0.262,0.344,0.337,0.301,0.318,0.279,0.229,–,0.224,0.257,0.905,0.774,0.901,0.962,1.03,0.883,0.924,0.661,0.931,1.01
NCI-H1975,0.358,0.338,0.346,0.321,0.198,0.729,0.715,0.579,0.795,0.849,0.279,0.31,–,0.344,0.402,0.383,0.354,–,0.368,0.413
NCI-H1993,0.537,0.563,0.677,0.643,0.475,1.21,0.885,1.1,0.952,1.01,0.834,0.845,0.807,0.684,0.725,1.18,1.24,1.19,0.878,0.812
NCI-H2009,0.363,0.315,0.284,0.241,0.184,0.603,0.638,0.556,0.593,0.449,0.816,0.317,0.673,0.85,0.428,0.837,0.329,0.58,0.962,0.398
NCI-H2023,0.57,0.584,0.472,0.498,0.147,0.453,0.413,0.472,0.379,0.348,0.303,0.182,0.332,0.264,0.132,0.912,0.71,0.878,0.799,0.801
NCI-H2085,0.256,0.231,0.266,0.257,0.208,0.773,0.734,0.654,0.707,0.627,0.546,0.463,0.677,0.481,0.415,0.949,0.927,0.857,1.09,1
NCI-H2087,0.802,1.09,0.902,0.801,0.702,0.525,0.535,0.439,0.542,0.371,0.816,0.341,–,0.999,0.424,0.789,0.763,–,0.701,0.72
NCI-H2126,0.575,0.629,0.56,0.628,0.523,0.912,0.895,0.966,0.855,0.762,0.517,0.446,0.633,0.519,0.41,1.02,0.617,1.09,1.05,0.998
NCI-H2228,0.466,0.562,0.579,0.511,0.483,0.555,0.608,0.583,0.728,0.903,0.337,0.304,0.539,0.389,0.47,0.745,0.913,0.973,0.906,0.937
NCI-H2347,0.303,0.248,0.294,0.316,0.379,0.587,0.597,0.554,0.675,0.437,0.623,0.596,0.855,0.731,0.494,0.827,0.818,0.827,0.958,0.818
